# Test results: PubChem BioAssay (NCI)
#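 A five-concentration, 48-hour dose response in 96-well plates underlies each endpoint, interpolated linearly between surrounding concentrations. TGI: concentration producing complete growth inhibition.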
# Legend:
# Assay in all cases: NCI anticancer screen, dose series, 48 h
# 786-0 renal = test system: 786-0 renal
# A498 renal = test system: A498 renal
# A549 NSCLC = test system: A549 NSCLC
# BT-549 breast = test system: BT-549 breast
# CAKI-1 renal = test system: CAKI-1 renal
# CCRF-CEM leukemia = test system: CCRF-CEM leukemia
# COLO 205 colon = test system: COLO 205 colon
# EKVX NSCLC = test system: EKVX NSCLC
# HCC-2998 colon = test system: HCC-2998 colon
# HCT-15 colon = test system: HCT-15 colon
# HL-60(TB) leukemia = test system: HL-60(TB) leukemia
# HOP-62 NSCLC = test system: HOP-62 NSCLC
# HOP-92 NSCLC = test system: HOP-92 NSCLC
# HS 578T breast = test system: HS 578T breast
# IGROV1 ovarian = test system: IGROV1 ovarian
# K-562 leukemia = test system: K-562 leukemia
# M14 melanoma = test system: M14 melanoma
# MCF7 breast = test system: MCF7 breast
# MDA-MB-231 breast = test system: MDA-MB-231 breast
# MDA-N = test system: MDA-N
# MOLT-4 leukemia = test system: MOLT-4 leukemia
# NCI-H226 lung = test system: NCI-H226 lung
# NCI-H23 lung = test system: NCI-H23 lung
# NCI-H522 lung = test system: NCI-H522 lung
# NCI/ADR-RES ovarian = test system: NCI/ADR-RES ovarian
# OVCAR-3 ovarian = test system: OVCAR-3 ovarian
# OVCAR-4 ovarian = test system: OVCAR-4 ovarian
# OVCAR-8 ovarian = test system: OVCAR-8 ovarian
# PC-3 prostate = test system: PC-3 prostate
# RPMI-8226 leukemia = test system: RPMI-8226 leukemia
# RXF 393 renal = test system: RXF 393 renal
# SF-295 CNS = test system: SF-295 CNS
# SF-539 CNS = test system: SF-539 CNS
# SK-MEL-5 melanoma = test system: SK-MEL-5 melanoma
# SK-OV-3 ovarian = test system: SK-OV-3 ovarian
# SN12C renal = test system: SN12C renal
# SNB-19 CNS = test system: SNB-19 CNS
# SR leukemia = test system: SR leukemia
# SW-620 colon = test system: SW-620 colon
# U251 CNS = test system: U251 CNS
# UACC-257 melanoma = test system: UACC-257 melanoma
# UO-31 renal = test system: UO-31 renal
# ACHN renal = test system: ACHN renal
# DU-145 prostate = test system: DU-145 prostate
# HCT-116 colon = test system: HCT-116 colon
# HT29 colon = test system: HT29 colon
# KM12 colon = test system: KM12 colon
# LOX IMVI melanoma = test system: LOX IMVI melanoma
# MALME-3M melanoma = test system: MALME-3M melanoma
# MDA-MB-435 = test system: MDA-MB-435
# NCI-H460 lung = test system: NCI-H460 lung
# OVCAR-5 ovarian = test system: OVCAR-5 ovarian
# SF-268 CNS = test system: SF-268 CNS
# SK-MEL-28 melanoma = test system: SK-MEL-28 melanoma
# SNB-75 CNS = test system: SNB-75 CNS
# TK-10 renal = test system: TK-10 renal
# UACC-62 melanoma = test system: UACC-62 melanoma
# T-47D breast = test system: T-47D breast
smiles,measurement,setting,value
CC(C)NC(=O)OCc1c(COC(=O)NC(C)C)c(-c2cc[n+](COC(=O)CC(C)(C)C)cc2)n2c1CCC2,TGI,786-0 renal,> 100 µM
same,TGI,A498 renal,> 100 µM
same,TGI,A549 NSCLC,> 100 µM
same,TGI,BT-549 breast,> 100 µM
same,TGI,CAKI-1 renal,> 100 µM
same,TGI,CCRF-CEM leukemia,> 100 µM
same,TGI,COLO 205 colon,> 100 µM
same,TGI,EKVX NSCLC,> 100 µM
same,TGI,HCC-2998 colon,> 100 µM
same,TGI,HCT-15 colon,> 100 µM
same,TGI,HL-60(TB) leukemia,> 100 µM
same,TGI,HOP-62 NSCLC,> 100 µM
same,TGI,HOP-92 NSCLC,> 100 µM
same,TGI,HS 578T breast,> 100 µM
same,TGI,IGROV1 ovarian,> 100 µM
same,TGI,K-562 leukemia,> 100 µM
same,TGI,M14 melanoma,> 100 µM
same,TGI,MCF7 breast,> 100 µM
same,TGI,MDA-MB-231 breast,> 100 µM
same,TGI,MDA-N,> 100 µM
same,TGI,MOLT-4 leukemia,> 100 µM
same,TGI,NCI-H226 lung,> 100 µM
same,TGI,NCI-H23 lung,> 100 µM
same,TGI,NCI-H522 lung,> 100 µM
same,TGI,NCI/ADR-RES ovarian,> 100 µM
same,TGI,OVCAR-3 ovarian,> 100 µM
same,TGI,OVCAR-4 ovarian,> 100 µM
same,TGI,OVCAR-8 ovarian,> 100 µM
same,TGI,PC-3 prostate,> 100 µM
same,TGI,RPMI-8226 leukemia,> 100 µM
same,TGI,RXF 393 renal,> 100 µM
same,TGI,SF-295 CNS,> 100 µM
same,TGI,SF-539 CNS,> 100 µM
same,TGI,SK-MEL-5 melanoma,> 100 µM
same,TGI,SK-OV-3 ovarian,> 100 µM
same,TGI,SN12C renal,> 100 µM
same,TGI,SNB-19 CNS,> 100 µM
same,TGI,SR leukemia,> 100 µM
same,TGI,SW-620 colon,> 100 µM
same,TGI,U251 CNS,> 100 µM
same,TGI,UACC-257 melanoma,> 100 µM
same,TGI,UO-31 renal,> 100 µM
O=C(C(=O)c1cc(-c2ccccc2)nc2ccc3ccccc3c12)c1ccccc1,TGI,786-0 renal,> 100 µM
same,TGI,A498 renal,> 100 µM
same,TGI,A549 NSCLC,> 100 µM
same,TGI,ACHN renal,> 100 µM
same,TGI,BT-549 breast,> 100 µM
same,TGI,CAKI-1 renal,> 100 µM
same,TGI,CCRF-CEM leukemia,> 100 µM
same,TGI,COLO 205 colon,> 100 µM
same,TGI,DU-145 prostate,> 100 µM
same,TGI,EKVX NSCLC,> 100 µM
same,TGI,HCC-2998 colon,> 100 µM
same,TGI,HCT-116 colon,39 µM
same,TGI,HCT-15 colon,> 100 µM
same,TGI,HL-60(TB) leukemia,78.7 µM
same,TGI,HOP-62 NSCLC,> 100 µM
same,TGI,HS 578T breast,81.4 µM
same,TGI,HT29 colon,> 100 µM
same,TGI,IGROV1 ovarian,> 100 µM
same,TGI,K-562 leukemia,> 100 µM
same,TGI,KM12 colon,> 100 µM
same,TGI,LOX IMVI melanoma,> 100 µM
same,TGI,M14 melanoma,> 100 µM
same,TGI,MALME-3M melanoma,> 100 µM
same,TGI,MCF7 breast,> 100 µM
same,TGI,MDA-MB-231 breast,> 100 µM
same,TGI,MDA-MB-435,> 100 µM
same,TGI,MDA-N,> 100 µM
same,TGI,MOLT-4 leukemia,> 100 µM
same,TGI,NCI-H226 lung,> 100 µM
same,TGI,NCI-H23 lung,> 100 µM
same,TGI,NCI-H460 lung,> 100 µM
same,TGI,NCI/ADR-RES ovarian,> 100 µM
same,TGI,OVCAR-3 ovarian,> 100 µM
same,TGI,OVCAR-4 ovarian,49.8 µM
same,TGI,OVCAR-5 ovarian,> 100 µM
same,TGI,OVCAR-8 ovarian,> 100 µM
same,TGI,PC-3 prostate,> 100 µM
same,TGI,RPMI-8226 leukemia,> 100 µM
same,TGI,RXF 393 renal,> 100 µM
same,TGI,SF-268 CNS,> 100 µM
same,TGI,SF-295 CNS,> 100 µM
same,TGI,SF-539 CNS,> 100 µM
same,TGI,SK-MEL-28 melanoma,> 100 µM
same,TGI,SK-MEL-5 melanoma,> 100 µM
same,TGI,SK-OV-3 ovarian,> 100 µM
same,TGI,SN12C renal,> 100 µM
same,TGI,SNB-19 CNS,> 100 µM
same,TGI,SNB-75 CNS,40.7 µM
same,TGI,SR leukemia,> 100 µM
same,TGI,SW-620 colon,> 100 µM
same,TGI,TK-10 renal,> 100 µM
same,TGI,U251 CNS,> 100 µM
same,TGI,UACC-257 melanoma,> 100 µM
same,TGI,UACC-62 melanoma,> 100 µM
same,TGI,UO-31 renal,> 100 µM
Cc1cccc(NS(=O)(=O)c2ccc3c(c2)OCCOCCOCCOCCO3)c1,TGI,786-0 renal,> 100 µM
same,TGI,A498 renal,> 100 µM
same,TGI,A549 NSCLC,> 100 µM
same,TGI,ACHN renal,> 100 µM
same,TGI,BT-549 breast,> 100 µM
same,TGI,CAKI-1 renal,> 100 µM
same,TGI,CCRF-CEM leukemia,> 100 µM
same,TGI,COLO 205 colon,> 100 µM
same,TGI,DU-145 prostate,> 100 µM
same,TGI,EKVX NSCLC,> 100 µM
same,TGI,HCC-2998 colon,> 100 µM
same,TGI,HCT-116 colon,> 100 µM
same,TGI,HCT-15 colon,> 100 µM
same,TGI,HL-60(TB) leukemia,> 100 µM
same,TGI,HOP-62 NSCLC,> 100 µM
same,TGI,HS 578T breast,> 100 µM
same,TGI,HT29 colon,> 100 µM
same,TGI,IGROV1 ovarian,> 100 µM
same,TGI,K-562 leukemia,> 100 µM
same,TGI,KM12 colon,> 100 µM
same,TGI,M14 melanoma,> 100 µM
same,TGI,MALME-3M melanoma,> 100 µM
same,TGI,MCF7 breast,> 100 µM
same,TGI,MDA-MB-231 breast,> 100 µM
same,TGI,MDA-MB-435,> 100 µM
same,TGI,MDA-N,> 100 µM
same,TGI,MOLT-4 leukemia,> 100 µM
same,TGI,NCI-H226 lung,> 100 µM
same,TGI,NCI-H23 lung,> 100 µM
same,TGI,NCI-H460 lung,> 100 µM
same,TGI,NCI-H522 lung,65.5 µM
same,TGI,OVCAR-8 ovarian,> 100 µM
same,TGI,PC-3 prostate,> 100 µM
same,TGI,RPMI-8226 leukemia,> 100 µM
same,TGI,SF-268 CNS,> 100 µM
same,TGI,SF-295 CNS,> 100 µM
same,TGI,SF-539 CNS,> 100 µM
same,TGI,SK-MEL-28 melanoma,> 100 µM
same,TGI,SK-MEL-5 melanoma,> 100 µM
same,TGI,SK-OV-3 ovarian,> 100 µM
same,TGI,SN12C renal,> 100 µM
same,TGI,SNB-19 CNS,> 100 µM
same,TGI,SNB-75 CNS,> 100 µM
same,TGI,SR leukemia,> 100 µM
same,TGI,SW-620 colon,> 100 µM
same,TGI,T-47D breast,> 100 µM
same,TGI,TK-10 renal,> 100 µM
same,TGI,UACC-257 melanoma,> 100 µM
same,TGI,UACC-62 melanoma,> 100 µM
same,TGI,UO-31 renal,> 100 µM
